# pIC50: −log10 of the molar value. “Also recorded” adds a separate entry of the source.
# Assays:
# [1] = test system: T:G basepairs (TDG, MBD4) repair in MCF-7 cells; test: Host-cell reactivation assay, T:G reporter, MCF-7; format: cell-based, human; conditions: ATA 2.5 μM
# Description: Panel A: 1.25 μM and panel B: 2.5 μM. Reporter expression was calculated for each dose of ATA as described in prior publications and normalized to DMSO treatment.
# Removal of uracil in cells was measured using a reporter plasmid containing a dU:dG base pair (referred to as BFP_U), as described previously. In brief, dU is substituted into the transcribed strand at position 191 of the blue fluorescent protein (BFP) gene. When RNA polymerase II incorporates dA opposite dU, transcripts encoding wild type BFP are produced. Upon repair, dU is replaced by dC, leading to production of transcripts encoding a non-fluorescent protein. […] A corresponding cocktail of damage-free plasmids containing pmax BFP (100 ng per transfection), pmax GFP (100 ng per transfection), and carrier plasmid (800 ng per transfection) constituted the “undamaged” cocktail. After normalizing to expression of the pmax,GFP transfection control, expression of BFP_U in the damaged cocktail was normalized to similarly normalized expression of pmax_BFP in the undamaged cocktail. The reciprocal of BFP_U reporter expression was calculated for each experimental condition. […] This creates a premature stop codon, completely abolishing fluorescence. Removal of thymidine followed by insertion of dC opposite dG restores reporter fluorescence.
# human UDG = human UDG (Homo sapiens, UniProt P13051); test: Differential scanning fluorimetry (nanoDSF), intrinsic tryptophan fluorescence and scattering; format: binding; set-up: Full-length UDG at 14 μM in 137 mM NaCl
# Sequence of human UDG (P13051 whole entry): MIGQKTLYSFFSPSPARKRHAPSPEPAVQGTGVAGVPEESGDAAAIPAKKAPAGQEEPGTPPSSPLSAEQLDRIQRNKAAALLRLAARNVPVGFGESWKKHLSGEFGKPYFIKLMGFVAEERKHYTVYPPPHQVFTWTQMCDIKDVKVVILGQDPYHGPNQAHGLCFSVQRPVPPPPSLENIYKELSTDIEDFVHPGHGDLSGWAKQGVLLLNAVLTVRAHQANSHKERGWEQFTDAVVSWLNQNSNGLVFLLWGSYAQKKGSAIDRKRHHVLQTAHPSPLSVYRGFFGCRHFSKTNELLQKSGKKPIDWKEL
# Description: The data for thermophoresis was recorded at 20° C. using the blue LED at 20% and IR-Laser at 40%. The isotherm derived from the raw data and fitted according to the law of mass action. […] Then 2 μL of 10× Sypro dye and 2 μL of ddH20 (Applied biosystems cat #4461141) were added. Monitoring of fluorescence took place for 2 hr (Bioraid CFX96, Hex filter, 25-97° C., 1.6° C./2 min). Negative (−) derivative RFU raw data and plots from the machine were obtained and analyzed. […] Melting temperature (Tm) value was taken directly from the midpoint on the −dRFU/dt vs. temperature graph. Each point on the graph represents an average of three data sets. Y error bars represent the standard deviation.
# Differential scanning fluorimetry (DSF) measurements were performed on a Prometheus NT.48 instrument (NanoTemper Technologies, Munich, Germany). […] The capillaries were filled with 10 μL sample and placed on the sample holder. A temperature gradient of 1° C.·min^−1 from 25 to 90° C. was applied and the intrinsic protein fluorescence at 330 and 350 nm was recorded. Additional aggregation onset temperatures are detected via back-reflection light scattering. […] Therefore, analysis of single wavelength was used to determine the melting temperature.
# [2] = biological target: T1, UDG in human DLD1 colon cancer cell lysate (Homo sapiens, UniProt P13051); test: DNA cleavage assay with cell-free protein extracts from DLD1 cells; format: biochemical
# T1 construct: IC50 in DLD1 UDG containing cell lysate; other: estimated; effect on 23mer ssDNA generation; DLD1 cell extracts; extracts where UDG was present
# T1 sequence (P13051 45-313 limits assumed): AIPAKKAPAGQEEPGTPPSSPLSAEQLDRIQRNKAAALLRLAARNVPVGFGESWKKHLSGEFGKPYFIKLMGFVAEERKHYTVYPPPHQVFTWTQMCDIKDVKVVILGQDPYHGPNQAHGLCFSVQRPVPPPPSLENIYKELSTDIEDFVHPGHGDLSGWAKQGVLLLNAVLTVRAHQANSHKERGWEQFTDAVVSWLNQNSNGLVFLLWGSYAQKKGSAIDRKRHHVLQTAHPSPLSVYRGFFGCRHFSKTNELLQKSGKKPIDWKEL
# Description: A: human cancer lysates were extracted from DLD1 human colon cancer cell lines. […] 20% polyacrylamide nucleic acid urea gel electrophoresis was used to resolve the DNA bands at room temperature, 200 v for 50 min. DNA products were visualized using a Typhoon Trio+Variable Mode Imager (Amersham Biosciences) with excitation and emission wavelengths set to 532 nm and 585 nm respectively, PMT set to 400, and pixel size resolution set to 100 μm. […] Either uracil DNA (U:A bp) or thymidine DNA (T:A bp) was added to initiate the reaction and incubated for additional 20 min at 37° C. 20% polyacrylamide nucleic acid urea gel electrophoresis was used to resolve the DNA bands. Gel data were analyzed using ImageJ software. DNA bands were corrected using a constant background band intensity subtraction step. Then, percent cleavage was calculated by using fluorescence intensity of the cleaved 23-mer DNA strand divided by the sum of the fluorescence bands (23mer+40mer DNA).
# The reaction was pre-incubated for 20 min at 37° C. before a fluorescently-labeled TAMRA DNA duplex oligo containing a single U:A bp (final 30 nM) was added to each reaction well with a total reaction volume of 50 μL/well. Plate was further incubated for 20 min at 37° C. 5 μL of a denaturing loading dye (20 mg of bromophenol blue, 9.7 ml of formamide plus 300 μL of 10M NaOH) was added to stop each reaction. DNA products from each reaction were resolved on a 20% denaturing polyacrylamide nucleic acid urea gel (5.3 grams of urea was dissolved in 2.3 mL of 5×TBE, 5 mL of 40% bis-acrylamide 29:1 solution). 5×TBE buffer was prepared by dissolving 54 grams of tris base, 28 grams of boric acid, and 4.5 grams of EDTA in a liter of distilled H2O. Gels were processed at 200V for 60 mins at room temperature, in the dark. […] Gel data were analyzed using ImageJ software. […] Then, percent cleavage was calculated by using fluorescence intensity of the cleaved 23-mer DNA strand divided by the sum of the fluorescence bands (23mer+40mer DNA strands)*100 for untreated and treated conditions. […]
smiles,measurement,setting,value
"O=C(O)C1=CC(=C(c2ccc(O)c(C(=O)O)c2)c2ccc(O)c(C(=O)O)c2)C=CC1=O [ATA, aurintricarboxylic acid]",inhibition of repair of T:G basepair,[1],not inhibiting
same,protein aggregation onset (scattering),human UDG; UDG in the presence of ATA vs UDG alone,induced protein aggregation at lower temperatures than UDG alone
same,mean melting temperature of UDG in the presence of ATA,"human UDG; nanoDSF, 330 nm, UDG alone 53.5 °C",51 °C
same,effect on 23mer ssDNA generation,"[2]; 12.5 μM ATA, DLD1 cell extracts",minimal effect
same,inhibition of 23mer ssDNA appearance,"[2]; 50 μM ATA, extracts where UDG was present",near-complete inhibition; also recorded: completely inhibited
same,pIC50,[2]; read-out: IC50 in DLD1 UDG containing cell lysate,~4.49

# Reference: patent US20240156764A1, “INHIBITION OF URACIL DNA GLYCOSYLASE IN THE OPEN CONFORMATION” (CASE WESTERN RESERVE UNIVERSITY, priority 2022, published 2024)
